Here are results for 13 compounds from patent US9296741B2, “Bromodomain inhibitors” (priority 2012, dated 2016).

Data set [1] can be described thus: Mouse liver microsome stability assay. The format is in vitro ADME. The following applies: male, CD1, mouse, microsomes, pH 7.4. For orientation: Microsomes from liver hold many membrane-bound enzymes, among them those of drug oxidation.
The target of data set [2] is human BRD4 first bromodomain (BDI_K57-E168) (Homo sapiens (Human), UniProt O60885). Description: TR-FRET bromodomain binding assay, BRD4 first bromodomain. In general terms: In TR-FRET formats the signal depends on donor and acceptor labels being close together.
Data set [3] can be described thus: Human liver microsome stability assay. Type of data set: in vitro ADME. The note with it: both sexes, human, microsomes, pH 7.4.
Data set [4] has as its system breast cancer cell line MX-1. The data set is described as follows: MX-1 cell line proliferation assay. Type of data set: cell-based, human. The note with it: Homo sapiens, MX1, 72 h; MX-1 cells, 3-day proliferation, Cell Titer Glo; read-out: Cellular proliferation: EC50. For orientation: Cellular ATP, detected with luciferase, serves as a proxy for viable cell number.

Data set [5] can be described thus: Rat liver microsome stability assay. Type of data set: in vitro ADME. The following applies: rat liver microsomes (male Sprague-Dawley), 0.5 μM test compound, 0.25 mg/mL microsomal protein, pH 7.4, 37° C.; read-out: Stability in rat liver microsomes (t1/2 in minutes).
In data set [6] the target is human BRD4 second bromodomain (BDII_E352-M457) (Homo sapiens (Human), UniProt O60885). The data set is described as follows: TR-FRET bromodomain binding assay, BRD4 second bromodomain.

For orientation: Ki means a dissociation constant, usually derived from enzyme kinetics or from competition with a known ligand. Low values mean higher affinity, high ones lower affinity.

`COc1ccccc1Oc1ccc(S(C)(=O)=O)cc1-c1cn(C)c(=O)c2[nH]ccc12` [Example 178, 4-[2-(2-methoxyphenoxy)-5-(methylsulfonyl)phenyl]-6-methyl-1,6-dihydro-7H-pyrrolo[2,3-c]pyridin-7-one]: the half-life at 0.5 μM was found to be 10 min in data set [1], 27 min in data set [3] and 7 min in data set [5]. Also, the inhibition constant (Ki) came out at 0.0105 µM in data set [2] and 0.0032 µM in data set [6]. In addition, the EC50 in data set [4] was 0.0362 µM.
`Cn1cc(-c2cc(-c3cccnc3)ccc2OCC2CC2)c2cc[nH]c2c1=O` [Example 315, 4-[2-(cyclopropylmethoxy)-5-(pyridin-3-yl)phenyl]-6-methyl-1,6-dihydro-7H-pyrrolo[2,3-c]pyridin-7-one]: the half-life at 0.5 μM is 11 min in data set [1], 34 min in data set [3] and 4 min in data set [5]. In addition, the Ki in data set [2] came to 0.0376 µM; in data set [6], 0.231 µM. For the same compound, the EC50 in data set [4] worked out at 0.16 µM.
`Cn1cc(-c2cc(C(=O)NCC(C)(C)O)ccc2Oc2ccc(F)cc2F)c2cc[nH]c2c1=O` [Example 123, 4-(2,4-difluorophenoxy)-N-(2-hydroxy-2-methylpropyl)-3-(6-methyl-7-oxo-6,7-dihydro-1H-pyrrolo[2,3-c]pyridin-4-yl)benzamide]: the half-life at 0.5 μM in data set [1] is 45 min; in data set [3], more than 120 min; in data set [5] it was more than 120 min. Also, the Ki in data set [2] turned out to be 0.0271 µM; in data set [6], 0.0361 µM. Besides, the EC50 in data set [4] was 0.118 µM.
Turning to `CCS(=O)(=O)Nc1ccc(OC2CCOCC2)c(-c2cn(C)c(=O)c3[nH]ccc23)c1` [Example 109, N-[3-(6-methyl-7-oxo-6,7-dihydro-1H-pyrrolo[2,3-c]pyridin-4-yl)-4-(tetrahydro-2H-pyran-4-yloxy)phenyl]ethanesulfonamide], the half-life at 0.5 μM in data set [1] is more than 120 min; in data set [3] it was 71 min; in data set [5] it was 61 min. For the same compound, the results for the Ki in data set [2] and in data set [6] were 0.00072 µM and 0.0034 µM, respectively. Besides, the EC50 in data set [4] was 0.032 µM.
With `Cn1cc(-c2cc(S(=O)(=O)C(F)(F)F)ccc2NCC2CC2)c2cc[nH]c2c1=O` [Example 244, 4-{2-[(cyclopropylmethyl)amino]-5-[(trifluoromethyl)sulfonyl]phenyl}-6-methyl-1,6-dihydro-7H-pyrrolo[2,3-c]pyridin-7-one], the half-life at 0.5 μM in data set [1] was determined as 87 min; in data set [3], 53 min; in data set [5], 6 min. Besides, the inhibition constant Ki in data set [2] came out at 0.0232 µM; in data set [6], 0.0737 µM. Also, the EC50 in data set [4] was found to be 0.254 µM.
Turning to `Cn1cc(-c2cc(S(C)(=O)=O)ccc2Oc2ccc(F)cc2F)c2cc(CNc3nccs3)[nH]c2c1=O` [Example 283, 4-[2-(2,4-difluorophenoxy)-5-(methylsulfonyl)phenyl]-6-methyl-2-[(1,3-thiazol-2-ylamino)methyl]-1,6-dihydro-7H-pyrrolo[2,3-c]pyridin-7-one], the half-life at 0.5 μM in data set [1] is 12 min; in data set [3], 7 min; in data set [5] it was 22 min. The inhibition constant (Ki) worked out at 0.0189 µM in data set [2] and 0.0346 µM in data set [6]. For the same compound, in data set [4], the EC50 was determined as 0.138 µM.
As for `CN1CCN(C(=O)c2cc3c(-c4cc(S(C)(=O)=O)ccc4Oc4ccc(F)cc4F)cn(C)c(=O)c3[nH]2)CC1` [Example 256, 4-[2-(2,4-difluorophenoxy)-5-(methylsulfonyl)phenyl]-6-methyl-2-[(4-methylpiperazin-1-yl)carbonyl]-1,6-dihydro-7H-pyrrolo[2,3-c]pyridin-7-one], the half-life at 0.5 μM in data set [1] worked out at 71 min; in data set [3] it was 58 min; in data set [5], 58 min. The values for the Ki in data set [2] and in data set [6] were 0.0061 µM and 0.084 µM, respectively. The EC50 in data set [4] worked out at 0.405 µM.
In the case of `Cn1cc(-c2cc(-c3ccc(N)nc3)ccc2OCC2CC2)c2cc[nH]c2c1=O` [Example 326, 4-[5-(6-aminopyridin-3-yl)-2-(cyclopropylmethoxy)phenyl]-6-methyl-1,6-dihydro-7H-pyrrolo[2,3-c]pyridin-7-one], the values for the half-life at 0.5 μM in data set [1], in data set [3] and in data set [5] were 27 min, 112 min and 5 min, respectively. Also, the Ki was determined as 0.145 µM in data set [2] and 0.272 µM in data set [6]. The EC50 in data set [4] was 0.286 µM.
In the case of `Cn1cc(-c2cc(S(C)(=O)=O)ccc2Oc2ccc(F)cc2F)c2cc(COc3ccccc3)[nH]c2c1=O` [Example 292, 4-[2-(2,4-difluorophenoxy)-5-(methylsulfonyl)phenyl]-6-methyl-2-(phenoxymethyl)-1,6-dihydro-7H-pyrrolo[2,3-c]pyridin-7-one], the results for the half-life at 0.5 μM in data set [1], in data set [3] and in data set [5] were 12 min, 8 min and 22 min, respectively. Moreover, the Ki in data set [2] is 0.0532 µM; in data set [6], 0.0558 µM. Moreover, the EC50 in data set [4] stood at 0.366 µM.
Consider `CCOC(=O)N1CCC(Oc2ccc(S(=O)(=O)CC)cc2-c2cn(C)c(=O)c3[nH]ccc23)CC1` [Example 301, ethyl 4-[4-(ethylsulfonyl)-2-(6-methyl-7-oxo-6,7-dihydro-1H-pyrrolo[2,3-c]pyridin-4-yl)phenoxy]piperidine-1-carboxylate], for which the half-life at 0.5 μM was found to be 13 min in data set [1], 20 min in data set [3] and 82 min in data set [5]. The Ki in data set [2] came to 0.0179 µM; in data set [6], 0.0155 µM. The EC50 in data set [4] is 0.0421 µM.
Take `Cn1cc(-c2cc(C(=O)NCc3ccccn3)ccc2Oc2ccc(F)cc2F)c2cc[nH]c2c1=O` [Example 129, 4-(2,4-difluorophenoxy)-3-(6-methyl-7-oxo-6,7-dihydro-1H-pyrrolo[2,3-c]pyridin-4-yl)-N-(pyridin-2-ylmethyl)benzamide]: the half-life at 0.5 μM in data set [1] stood at 12 min; in data set [3], 54 min; in data set [5], 38 min. For the same compound, the inhibition constant (Ki) turned out to be 0.0379 µM in data set [2] and 0.0456 µM in data set [6]. For the same compound, in data set [4], the EC50 came to 0.118 µM.
For `Cn1cc(-c2cc(NS(C)(=O)=O)ccc2OC2CCCCC2)c2cc[nH]c2c1=O` [Example 57, N-[4-(cyclohexyloxy)-3-(6-methyl-7-oxo-6,7-dihydro-1H-pyrrolo[2,3-c]pyridin-4-yl)phenyl]methanesulfonamide], the results for the half-life at 0.5 μM in data set [1], in data set [3] and in data set [5] were 5 min, 13 min and 6 min, respectively. Besides, the values for the Ki in data set [2] and in data set [6] were 0.00088 µM and 0.002 µM, respectively. Besides, in data set [4], the EC50 turned out to be 0.0138 µM.
`Cn1cc(-c2cc(NS(C)(=O)=O)ccc2Oc2ccccc2)c2cc(C(=O)O)[nH]c2c1=O` [Example 70, 6-methyl-4-{5-[(methylsulfonyl)amino]-2-phenoxyphenyl}-7-oxo-6,7-dihydro-1H-pyrrolo[2,3-c]pyridine-2-carboxylic acid]: the values for the half-life at 0.5 μM in data set [1], in data set [3] and in data set [5] were 68 min, 41 min and 9 min, respectively. Further, the figures for the Ki in data set [2] and in data set [6] were 0.0118 µM and 0.0468 µM, respectively. Further, the EC50 in data set [4] is more than 3 µM.
